# Results: patent publication US20020182614A1, “Expression analysis of inhibitor of differentiation nucleic acids and polypeptides useful in the diagnosis and treatment of prostate cancer” (priority 2000, published 2002)
# Key:
# LNCaP cells = test system: LNCaP cells
# Description: Human prostatic cancer cell lines LNCaP, DU-145, PC-3, and Tsu-prl were obtained from ATCC. LNCaP cancer cells were maintained in humidified atmosphere of 5% CO2 in air in RPMI 1640 medium supplemented with 10% fetal calf serum (Life Technologies, Inc, Rockville, Md.), 3 mM L-glutamine, 100 μg/ml streptomycin and 100 units/ml penicillin. Other lines were maintained in DMEM containing 3 mM L-glutamine, 100 μg/ml streptomycin, 100 units/ml penicillin, and 10% FCS in humidified atmosphere of 5% CO2. To examine the effects of steroids, cells were cultured in RPMI 1640 medium containing 5% FCS treated with dextran coated charcoal (Hyclone, Logan, Utah) for 24 hs before treatment. Cells were grown in the absence or presence of 10 nM DHT for 0, 2, 4, 6, 12, 24, 48, and 72 hs. They were collected and frozen at each time point. Two hundred μl of medium were collected from each flask for PSA assay.
# To verify the effect of DHT on the growth of LNCaP cells, cells at 3,000 cells/well were plated in 96-well plates for 24 hs before treatment with DHT. After 72 hs, MTT was added to each well and incubated at 37° C. for four hs. At the end of incubation, the supernatant was removed and 100 μl DMSO was added to each well to dissolve […]. Plates were subsequently read in a plate reader at […].
# PSA [1] = test system: PSA
# PSA [2] = details: LNCaP cells, mRNA
# ID-1 = details: LNCaP cells, in the presence of androgen
# ID-3 = details: LNCaP cells, in the presence of androgen
structure (smiles),measurement,setting,value
"C[C@]12CCC(=O)C[C@@H]1CC[C@@H]1[C@@H]2CC[C@]2(C)[C@@H](O)CC[C@@H]12 [DHT, dihydrotestosterone]",growth-stimulatory effect,LNCaP cells; 10 nM DHT,robust growth-stimulatory effect
same,growth of LNCaP cells,"LNCaP cells; MTT assay, FIG. 1A",stimulated
same,PSA production,PSA [1],increased in a dose-dependent manner
same,time at which PSA signal was first detected,PSA [1],12 h
same,time of maximal PSA level,PSA [1],about 48 hs
same,PSA expression increase relative to control,PSA [2]; 12 hours,3 fold
same,PSA expression induction relative to control,PSA [2]; 72 hours,approximately 4 fold
same,ID-1 expression level,ID-1,reduced
same,ID-3 expression level,ID-3,reduced
